In brackets after ≈: the same amount, converted by molar mass. Activity calls are given as the source filed them. The rule behind the calls is not given here.
What was measured:
Candida albicans [1] = assay: Antifungal activity against wild type Candida albicans SN152 assessed as inhibition of fungal growth by broth microdilution method; assay type: functional
Candida albicans [2] = assay: Antifungal activity against Candida albicans SN152 harboring CAS5 mutant assessed as inhibition of fungal growth by broth microdilution method; assay type: functional
Candida albicans [3] = assay: Antifungal activity against Candida albicans ATCC 24433 assessed as inhibition of fungal growth by broth microdilution method; assay type: functional
Candida parapsilosis = assay: Antifungal activity against Candida parapsilosis ATCC 90018 assessed as inhibition of fungal growth by broth microdilution method; assay type: functional; conditions: Lodderomyces parapsilosis
Nakaseomyces glabratus = assay: Antifungal activity against Candida glabrata ATCC 2001 assessed as inhibition of fungal growth by broth microdilution method; assay type: functional
Candida tropicalis = assay: Antifungal activity against Candida tropicalis ATCC 750 assessed as inhibition of fungal growth by broth microdilution method; assay type: functional
[Candida] auris [4] = Antifungal activity against Candida auris 102 assessed as inhibition of fungal growth by broth microdilution method; assay type: functional; conditions: Candidozyma auris
[Candida] auris [5] = Antifungal activity against Candida auris 105 assessed as inhibition of fungal growth by broth microdilution method; assay type: functional; conditions: Candidozyma auris
[Candida] auris [6] = Antifungal activity against Candida auris 118 assessed as inhibition of fungal growth by broth microdilution method; assay type: functional; conditions: Candidozyma auris
[Candida] auris [7] = Antifungal activity against wild type Candida auris 102 assessed as inhibition of fungal growth by broth microdilution method; assay type: functional; conditions: Candidozyma auris
Candida albicans [8] = assay: Synergistic antifungal activity against Candida albicans ATCC 24433 assessed as fractional inhibitory concentration index incubated for 48 hrs in presence of caspofungin by checker board assay; assay type: functional
Candida albicans [9] = assay: Antifungal activity against Candida albicans ATCC 24433 overexpressing transporter protein GU4 assessed as inhibition of fungal growth by broth microdilution method; assay type: functional
Candida albicans [10] = assay: Antifungal activity against Candida albicans ATCC 24433 overexpressing transporter protein GU5 assessed as inhibition of fungal growth by broth microdilution method; assay type: functional
Candida albicans [11] = assay: Antifungal activity against Candida albicans ATCC 24433 overexpressing transporter protein F2 assessed as inhibition of fungal growth by broth microdilution method; assay type: functional
Candida albicans [12] = assay: Antifungal activity against Candida albicans ATCC 24433 overexpressing transporter protein F5 assessed as inhibition of fungal growth by broth microdilution method; assay type: functional
Candida albicans [13] = assay: Antifungal activity against Candida albicans ATCC 24433 overexpressing ADCDR1-GFP assessed as inhibition of fungal growth by broth microdilution method; assay type: functional
Candida albicans [14] = assay: Antifungal activity against Candida albicans ATCC 24433 overexpressing ADCaMDR1-GFP assessed as inhibition of fungal growth by broth microdilution method; assay type: functional
Candida albicans [15] = assay: Antifungal activity against Candida albicans ATCC 24433 overexpressing ADPDR5-GFP assessed as inhibition of fungal growth by broth microdilution method; assay type: functional
Candida albicans [16] = assay: Antifungal activity against Candida albicans ATCC 24433 overexpressing AD(1-8)u-assessed as inhibition of fungal growth by broth microdilution method; assay type: functional
Candida albicans [17] = assay: Synergistic antifungal activity against Candida albicans ATCC 24433 overexpressing ADCDR1-GFP assessed as fractional inhibitory concentration index incubated for 48 hrs in presence of caspofungin by checker board assay; assay type: functional
Candida albicans [18] = assay: Synergistic antifungal activity against Candida albicans ATCC 24433 overexpressing ADCaMDR1-GFP assessed as fractional inhibitory concentration index incubated for 48 hrs in presence of caspofungin by checker board assay; assay type: functional
Candida albicans [19] = assay: Synergistic antifungal activity against Candida albicans ATCC 24433 overexpressing ADPDR5-G assessed as fractional inhibitory concentration index incubated for 48 hrs in presence of caspofungin by checker board assay; assay type: functional
Candida albicans [20] = assay: Inhibition of drug efflux in Candida albicans ATCC 24433 overexpressing AD(1-8)u- assessed as […] in nile red efflux incubated for 30 mins by flow cytometry; assay type: functional
Candida albicans [21] = assay: Fungicidal activity against Candida albicans ATCC 24433 assessed as reduction in fungal growth by measuring reduction in colony count at sub-MIC concentration measured after 48 hrs by time kill assay; assay type: functional, organism-based
Cell membrane [22] = assay: Disruption of membrane integrity in Candida albicans ATCC 24433 assessed as cell deformation measured after 30 mins by SEM analysis; assay type: subcellular
Cell membrane [23] = assay: Disruption of membrane integrity in Candida albicans ATCC 24433 assessed as cell surface perturbations measured after 3 hrs by SEM analysis
Cell membrane [24] = assay: Disruption of membrane integrity in Candida auris CBS10913 assessed as cell surface perturbations measured after 3 hrs by SEM analysis; assay type: subcellular; conditions: Candidozyma auris
Cell membrane [25] = assay: Disruption of membrane integrity in Candida albicans ATCC 24433 assessed as cell shrinkage and lysis by measuring leakage of intracellular material measured after 6 hrs by SEM analysis; assay type: subcellular
Cell membrane [26] = assay: Disruption of membrane integrity in Candida auris CBS10913 assessed as cell shrinkage and lysis by measuring leakage of intracellular material measured after 6 hrs by SEM analysis; conditions: Candidozyma auris
Candida albicans [27] = assay: Induction of ROS generation in Candida albicans ATCC 24433 at sub-inhibitory concentration incubated for 1 hr by DCFDA staining-based flow cytometric analysis; assay type: functional, organism-based
[Candida] auris [28] = Induction of ROS generation in Candida auris CBS10913 at sub-inhibitory concentration incubated for 1 hr by DCFDA staining-based flow cytometric analysis; assay type: functional, organism-based; conditions: Candidozyma auris
Candida albicans [29] = assay: Induction of ROS generation in Candida albicans ATCC 24433 assessed as increase in relative fluorescence unit at sub-inhibitory concentration incubated for 1 hr by DCFDA staining-based flow cytometric analysis; assay type: functional, organism-based
[Candida] auris [30] = Induction of ROS generation in Candida auris CBS10913 assessed as increase in relative fluorescence unit at sub-inhibitory concentration incubated for 1 hr by DCFDA staining-based flow cytometric analysis; assay type: functional, organism-based; conditions: Candidozyma auris
Candida albicans [31] = assay: Inhibition of drug efflux in Candida albicans ATCC 24433 overexpressing ADCDR1-GFP assessed as reduction in rhodamine 6g efflux preincubated for 45 mins followed by substrate addition and measured after 30 mins; assay type: functional; conditions: dose 0.1-100 µg/ml, time 75.0 min, DDE = dose-dependent effect
Candida albicans [32] = assay: Inhibition of drug efflux in Candida albicans ATCC 24433 overexpressing ADPDR5-GFP assessed as reduction in rhodamine 6g efflux preincubated for 45 mins followed by substrate addition and measured after 30 mins; assay type: functional; conditions: dose 0.1-100 µg/ml, time 75.0 min, DDE = dose-dependent effect
Candida albicans [33] = assay: Inhibition of drug efflux in Candida albicans ATCC 24433 overexpressing ADCaMDR1-GF assessed as […] in nile red efflux incubated for 30 mins by flow cytometry; assay type: functional

Structure (SMILES) | MIC80 (Candida albicans [1]) | MIC80 (Candida albicans [2]) | MIC80 (Candida albicans [3]) | MIC80 (Candida parapsilosis) | MIC80 (Nakaseomyces glabratus) | MIC80 (Candida tropicalis) | MIC80 ([Candida] auris [4]) | MIC80 ([Candida] auris [5]) | MIC80 ([Candida] auris [6]) | MIC80 ([Candida] auris [7]) | MIC80 (Candida albicans [9]) | MIC80 (Candida albicans [10]) | MIC80 (Candida albicans [11]) | MIC80 (Candida albicans [12]) | MIC80 (Candida albicans [13]) | MIC80 (Candida albicans [14]) | MIC80 (Candida albicans [15]) | MIC80 (Candida albicans [16]) | fractional inhibitory concentration index (FICI) (Candida albicans [17]) | fractional inhibitory concentration index (FICI) (Candida albicans [18]) | further results
Nc1c(/N=N/c2ccc(-c3ccc(/N=N/c4cc(S(=O)(=O)[O-])c5ccccc5c4N)cc3)cc2)cc(S(=O)(=O)[O-])c2ccccc12.[Na+].[Na+] [CONGO RED] | 100 µg/mL | 0.781 µg/mL | – | – | – | – | – | – | – | – | – | – | – | – | – | – | – | – | – | – | –
COc1ccc(/C=C(\C)[N+](=O)[O-])cc1 | – | – | 8 µg/mL (≈ 41.4 µM) | 16 µg/mL (≈ 82.8 µM) | 4 µg/mL (≈ 20.7 µM) | 4 µg/mL (≈ 20.7 µM) | 4 µg/mL (≈ 20.7 µM) | 2 µg/mL (≈ 10.4 µM) | 4 µg/mL (≈ 20.7 µM) | 2 µg/mL (≈ 10.4 µM) | 4 µg/mL (≈ 20.7 µM) | 4 µg/mL (≈ 20.7 µM) | 2 µg/mL (≈ 10.4 µM) | 2 µg/mL (≈ 10.4 µM) | 8 µg/mL (≈ 41.4 µM) | 4 µg/mL (≈ 20.7 µM) | 4 µg/mL (≈ 20.7 µM) | 4 µg/mL (≈ 20.7 µM) | <0.5 | <0.5 | fractional inhibitory concentration index (FICI) (Candida albicans [8]): <1.5; fractional inhibitory concentration index (FICI) (Candida albicans [19]): <0.5
CC/C(=C\c1ccc(OC)cc1)[N+](=O)[O-] | 8 µg/mL (≈ 38.6 µM) | 2 µg/mL (≈ 9.65 µM) | 4 µg/mL (≈ 19.3 µM) | 8 µg/mL (≈ 38.6 µM) | 4 µg/mL (≈ 19.3 µM) | 2 µg/mL (≈ 9.65 µM) | 4 µg/mL (≈ 19.3 µM) | 2 µg/mL (≈ 9.65 µM) | 4 µg/mL (≈ 19.3 µM) | 2 µg/mL (≈ 9.65 µM) | 4 µg/mL (≈ 19.3 µM) | 4 µg/mL (≈ 19.3 µM) | 2 µg/mL (≈ 9.65 µM) | 2 µg/mL (≈ 9.65 µM) | 4 µg/mL (≈ 19.3 µM) | 2 µg/mL (≈ 9.65 µM) | 2 µg/mL (≈ 9.65 µM) | 4 µg/mL (≈ 19.3 µM) | <0.5 | <0.5 | inhibition (Candida albicans [20]): Active; fractional inhibitory concentration index (FICI) (Candida albicans [8]): <2.5; Activity (Candida albicans [21]): Active; Activity (Cell membrane [22]): Active; Activity (Cell membrane [23]): Active; Activity (Cell membrane [24]): Active; Activity (Cell membrane [25]): Active; Activity (Cell membrane [26]): Active; Activity (Candida albicans [27]): Active; Activity ([Candida] auris [28]): Active; Activity (Candida albicans [29]): Active; Activity ([Candida] auris [30]): Active; fractional inhibitory concentration index (FICI) (Candida albicans [19]): <0.5; inhibition (Candida albicans [31]): Dde; inhibition (Candida albicans [32]): Dde; inhibition (Candida albicans [33]): Active
CC/C(=C\c1cccc([N+](=O)[O-])c1)[N+](=O)[O-] | 16 µg/mL (≈ 72 µM) | 8 µg/mL (≈ 36 µM) | 32 µg/mL (≈ 144 µM) | 32 µg/mL (≈ 144 µM) | 16 µg/mL (≈ 72 µM) | 16 µg/mL (≈ 72 µM) | 8 µg/mL (≈ 36 µM) | 8 µg/mL (≈ 36 µM) | 8 µg/mL (≈ 36 µM) | 8 µg/mL (≈ 36 µM) | 8 µg/mL (≈ 36 µM) | 16 µg/mL (≈ 72 µM) | 4 µg/mL (≈ 18 µM) | 4 µg/mL (≈ 18 µM) | 16 µg/mL (≈ 72 µM) | 8 µg/mL (≈ 36 µM) | 16 µg/mL (≈ 72 µM) | 16 µg/mL (≈ 72 µM) | <0.5 | <0.5 | fractional inhibitory concentration index (FICI) (Candida albicans [8]): <0.5; fractional inhibitory concentration index (FICI) (Candida albicans [19]): <0.5
O=[N+]([O-])/C=C/c1cccc(O)c1 | 16 µg/mL (≈ 96.9 µM) | 8 µg/mL (≈ 48.4 µM) | 16 µg/mL (≈ 96.9 µM) | 16 µg/mL (≈ 96.9 µM) | 16 µg/mL (≈ 96.9 µM) | > 32 µg/mL | 8 µg/mL (≈ 48.4 µM) | 8 µg/mL (≈ 48.4 µM) | 8 µg/mL (≈ 48.4 µM) | 8 µg/mL (≈ 48.4 µM) | 32 µg/mL (≈ 194 µM) | 16 µg/mL (≈ 96.9 µM) | 16 µg/mL (≈ 96.9 µM) | 8 µg/mL (≈ 48.4 µM) | 16 µg/mL (≈ 96.9 µM) | 4 µg/mL (≈ 24.2 µM) | 4 µg/mL (≈ 24.2 µM) | 16 µg/mL (≈ 96.9 µM) | <0.5 | <0.5 | fractional inhibitory concentration index (FICI) (Candida albicans [19]): <0.5
COc1ccc(/C=C/[N+](=O)[O-])cc1OC | – | – | 32 µg/mL (≈ 153 µM) | 32 µg/mL (≈ 153 µM) | 32 µg/mL (≈ 153 µM) | 16 µg/mL (≈ 76.5 µM) | 8 µg/mL (≈ 38.2 µM) | 8 µg/mL (≈ 38.2 µM) | 4 µg/mL (≈ 19.1 µM) | 4 µg/mL (≈ 19.1 µM) | 32 µg/mL (≈ 153 µM) | 16 µg/mL (≈ 76.5 µM) | 16 µg/mL (≈ 76.5 µM) | 16 µg/mL (≈ 76.5 µM) | 32 µg/mL (≈ 153 µM) | 16 µg/mL (≈ 76.5 µM) | 16 µg/mL (≈ 76.5 µM) | 16 µg/mL (≈ 76.5 µM) | – | – | –

Reference: ChEMBL document CHEMBL5113512, “β-Nitrostyrene derivatives as broad range potential antifungal agents targeting fungal cell wall” (2022)
